Experimental data reported in ChEMBL document CHEMBL5335863, “Design, Synthesis, and Evaluation of 8-(o-Tolyl)quinazoline Derivatives as Small-Molecule PD-1/PD-L1 Antagonists” (ACS Med Chem Lett, 2024).

What follows are molecules tested against T1, Programmed cell death protein 1/Programmed cell death 1 ligand 1 (Homo sapiens, UniProt Q15116+Q9NZQ7) (assay: Inhibition of PD-1/PD-L1 interaction (unknown origin) incubated for 60 min by HTRF assay). Conditions: not given.
Type: protein-complex assay

T1 sequence (Q15116 whole entry): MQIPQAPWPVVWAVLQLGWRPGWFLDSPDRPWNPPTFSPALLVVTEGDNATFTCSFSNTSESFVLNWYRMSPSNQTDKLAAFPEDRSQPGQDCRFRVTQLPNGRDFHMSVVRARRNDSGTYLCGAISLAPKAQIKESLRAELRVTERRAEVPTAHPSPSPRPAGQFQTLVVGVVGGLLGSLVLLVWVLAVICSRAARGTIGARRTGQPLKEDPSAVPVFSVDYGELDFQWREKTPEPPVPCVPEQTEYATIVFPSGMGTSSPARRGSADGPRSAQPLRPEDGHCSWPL
T1 sequence (Q9NZQ7 whole entry): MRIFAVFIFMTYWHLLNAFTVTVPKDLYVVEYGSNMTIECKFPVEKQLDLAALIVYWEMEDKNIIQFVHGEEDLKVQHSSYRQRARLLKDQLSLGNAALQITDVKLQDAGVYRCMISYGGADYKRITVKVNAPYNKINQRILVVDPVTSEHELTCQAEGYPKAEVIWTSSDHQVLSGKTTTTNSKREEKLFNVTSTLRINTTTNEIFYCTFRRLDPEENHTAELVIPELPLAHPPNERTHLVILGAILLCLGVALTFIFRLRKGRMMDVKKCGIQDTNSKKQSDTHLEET

`Cc1c(COc2cc(OCc3cccc(C#N)c3)c(CNC(CO)CO)cc2Cl)cccc1-c1cccc2c(Oc3cc(OCc4cccc(C#N)c4)c(CNC(CO)CO)cc3Cl)ncnc12` and `Cc1c(COc2cc(OCc3cccc(C#N)c3)c(CNCCO)cc2Cl)cccc1-c1cccc2c(Oc3cc(OCc4cccc(C#N)c4)c(CNCCO)cc3Cl)ncnc12` are within 1.5-fold of each other in IC50: 47.2 nM for the first, 37.7 nM for the second.

`Cc1c(COc2cc(OCc3cccc(C#N)c3)c(CNC3CCCC3)cc2Cl)cccc1-c1cccc2c(Oc3cc(OCc4cccc(C#N)c4)c(CNC4CCCC4)cc3Cl)ncnc12` and `Cc1c(COc2cc(OCc3cccc(C#N)c3)c(CNC3CCCCC3)cc2Cl)cccc1-c1cccc2c(Oc3cc(OCc4cccc(C#N)c4)c(CNC4CCCCC4)cc3Cl)ncnc12` are within 1.5-fold of each other in IC50: 112 nM for the first, 167 nM for the second.

`Cc1c(COc2cc(OCc3cccc(C#N)c3)c(CN3CC[C@H](O)C3)cc2Cl)cccc1-c1cccc2c(Oc3cc(OCc4cccc(C#N)c4)c(CN4CC[C@H](O)C4)cc3Cl)ncnc12` and `Cc1c(COc2cc(OCc3cccc(C#N)c3)c(CN3CC[C@@H](O)C3)cc2Cl)cccc1-c1cccc2c(Oc3cc(OCc4cccc(C#N)c4)c(CN4CC[C@@H](O)C4)cc3Cl)ncnc12` are within 1.5-fold of each other in IC50: 55.5 nM for the first, 46.2 nM for the second.

`Cc1c(COc2cc(OCc3cccc(C#N)c3)c(CNC[C@@H](O)CO)cc2Cl)cccc1-c1cccc2c(Oc3cc(OCc4cccc(C#N)c4)c(CNC[C@@H](O)CO)cc3Cl)ncnc12` and `Cc1c(COc2cc(OCc3cccc(C#N)c3)c(CNC[C@H](O)CO)cc2Cl)cccc1-c1cccc2c(Oc3cc(OCc4cccc(C#N)c4)c(CNC[C@H](O)CO)cc3Cl)ncnc12` are within 1.5-fold of each other in IC50: 23.8 nM for the first, 33.9 nM for the second.

`CC(=O)NCCNCc1cc(Cl)c(OCc2cccc(-c3cccc4c(Oc5cc(OCc6cccc(C#N)c6)c(CNCCNC(C)=O)cc5Cl)ncnc34)c2C)cc1OCc1cccc(C#N)c1` and `CCNCc1cc(Cl)c(OCc2cccc(-c3cccc4c(Oc5cc(OCc6cccc(C#N)c6)c(CNCC)cc5Cl)ncnc34)c2C)cc1OCc1cccc(C#N)c1` are within 1.5-fold of each other in IC50: 61.4 nM for the first, 48.5 nM for the second.

Going from `COCCNCc1cc(Cl)c(OCc2cccc(-c3cccc4c(Oc5cc(OCc6cccc(C#N)c6)c(CNCCOC)cc5Cl)ncnc34)c2C)cc1OCc1cccc(C#N)c1` to `Cc1c(COc2cc(OCc3cccc(C#N)c3)c(CNC(C)C)cc2Cl)cccc1-c1cccc2c(Oc3cc(OCc4cccc(C#N)c4)c(CNC(C)C)cc3Cl)ncnc12`, the IC50 falls from 101 nM to 51.5 nM (2-fold).

`Cc1c(COc2cc(OCc3cccc(C#N)c3)c(C=O)cc2Cl)cccc1-c1cccc2c(Oc3cc(OCc4cccc(C#N)c4)c(C=O)cc3Cl)ncnc12` and `Cc1c(COc2cc(OCc3cccc(C#N)c3)c(CO)cc2Cl)cccc1-c1cccc2c(Oc3cc(OCc4cccc(C#N)c4)c(CO)cc3Cl)ncnc12` cannot be ordered by IC50: greater than 1000 nM for the first, greater than 1000 nM for the second.

`Cc1c(COc2cc(OCc3cccc(C#N)c3)c(CN(C)CCO)cc2Cl)cccc1-c1cccc2c(Oc3cc(OCc4cccc(C#N)c4)c(CN(C)CCO)cc3Cl)ncnc12` and `Cc1c(COc2cc(OCc3cccc(C#N)c3)c(CNC(C)(CO)CO)cc2Cl)cccc1-c1cccc2c(Oc3cc(OCc4cccc(C#N)c4)c(CNC(C)(CO)CO)cc3Cl)ncnc12` are within 1.5-fold of each other in IC50: 44.8 nM for the first, 30.2 nM for the second.

Compared with `Cc1c(COc2cc(OCc3cccc(C#N)c3)c(CNC3CCC3)cc2Cl)cccc1-c1cccc2c(Oc3cc(OCc4cccc(C#N)c4)c(CNC4CCC4)cc3Cl)ncnc12`, `Cc1c(COc2cc(OCc3cccc(C#N)c3)c(CNC3CC3)cc2Cl)cccc1-c1cccc2c(Oc3cc(OCc4cccc(C#N)c4)c(CNC4CC4)cc3Cl)ncnc12` is 3.7-fold higher in IC50: 105 nM for the first, 390 nM for the second.

First: Cc1c(Nc2nccc3cc(CN4CC[C@H](O)C4)cnc23)cccc1-c1cccc(-c2nc3cc(CN4CC[C@H](C(=O)O)C4)cc(C#N)c3o2)c1C
Second: Cc1c(COc2cc(OCc3cccc(C#N)c3)c(CN3CCC(O)CC3)cc2Cl)cccc1-c1cccc2c(Oc3cc(OCc4cccc(C#N)c4)c(CN4CCC(O)CC4)cc3Cl)ncnc12
The IC50 of the first is 6.3-fold lower: 12.1 nM for the first, 75.8 nM for the second. The first is the more potent here.

Compared with `Cc1c(COc2cc(OCc3cccc(C#N)c3)c(CNC(CO)(CO)CO)cc2Cl)cccc1-c1cccc2c(Oc3cc(OCc4cccc(C#N)c4)c(CNC(CO)(CO)CO)cc3Cl)ncnc12`, `Cc1c(COc2cc(OCc3cccc(C#N)c3)c(CNC3CCOCC3)cc2Cl)cccc1-c1cccc2c(Oc3cc(OCc4cccc(C#N)c4)c(CNC4CCOCC4)cc3Cl)ncnc12` is 2.4-fold higher in IC50: 25.3 nM for the first, 59.7 nM for the second.

With `CC(CO)(CO)NCc1cc(Cl)c(Oc2ncnc3c(-c4ccc5c(c4)OCCO5)cccc23)cc1OCc1cccc(C#N)c1` the IC50 was 40.8 nM.

Each molecule was assayed on Jurkat (assay: Cytotoxicity against human Jurkat cells assessed as reduction in cell viability at 3.3 uM incubated for 48 hrs by CCK-8 assay). Conditions: not given.
Type: toxicity, cell-based

`Cc1c(COc2cc(OCc3cccc(C#N)c3)c(CNC[C@@H](O)CO)cc2Cl)cccc1-c1cccc2c(Oc3cc(OCc4cccc(C#N)c4)c(CNC[C@@H](O)CO)cc3Cl)ncnc12` was tested, and the Activity was “Non-Toxic”.

Each molecule was assayed against T1, Programmed cell death protein 1/Programmed cell death 1 ligand 1 (assay: Inhibition of PD-1/PD-L1 interaction in co-culture of Jurkat-NFAT-PD-1 cells expressing PD-1 and reporter gene and Hep3B-OS8-hPD-L1 cells expressing OS-8 and human PD-L1 assessed as increase in luminescence intensity incubated for 6 hrs by luminometry). Conditions: dose 0.4-1.11 µM.

`Cc1c(COc2cc(OCc3cccc(C#N)c3)c(CNC[C@@H](O)CO)cc2Cl)cccc1-c1cccc2c(Oc3cc(OCc4cccc(C#N)c4)c(CNC[C@@H](O)CO)cc3Cl)ncnc12` was tested, and the inhibition was “Dose-Dependent Effect”.
